Laboratory results as given in paper doi:10.1101/2024.08.19.608619, “Discovery of potent SARS-CoV-2 nsp3 macrodomain inhibitors uncovers lack of translation to cellular antiviral response” (bioRxiv, 2024).
Like-named read-outs stand apart in the source and are kept apart here.

Assays:
SARS-CoV-2 nsp3-mac1 [1] = target: T1, SARS-CoV-2 nsp3-mac1 (Severe acute respiratory syndrome coronavirus 2, UniProt P0DTD1); assay: biochemical; type: biochemical; conditions: SARS-CoV-2 nsp3 macrodomain TR-FRET single point
SARS-CoV-2 nsp3-mac1 [2] = target: T1, SARS-CoV-2 nsp3-mac1; assay: biochemical; design: SARS-CoV-2 nsp3 macrodomain TR-FRET single point, per cent inhibition, n=2
[3] = read-out: perc_inhibition_mean, batch_name=ASAP-0000402-001
[4] = read-out: perc_inhibition_mean, batch_name=ASAP-0000288-001
[5] = read-out: perc_inhibition_mean, batch_name=ASAP-0000388-001
[6] = read-out: perc_inhibition_mean, batch_name=ASAP-0000306-001
[7] = read-out: perc_inhibition_mean, batch_name=ASAP-0000464-001
[8] = read-out: perc_inhibition_mean, batch_name=ASAP-0000364-001
[9] = read-out: perc_inhibition_mean, batch_name=ASAP-0000317-001
[10] = read-out: perc_inhibition_mean, batch_name=ASAP-0000426-001
[11] = read-out: perc_inhibition_mean, batch_name=ASAP-0000308-001
[12] = read-out: perc_inhibition_mean, batch_name=ASAP-0000277-001
[13] = read-out: perc_inhibition_mean, batch_name=ASAP-0000417-001
[14] = read-out: perc_inhibition_mean, batch_name=ASAP-0000466-001
[15] = read-out: perc_inhibition_mean, batch_name=ASAP-0000340-001

## Cc1cccc(C)c1-n1nnnc1CSc1ncnc2[nH]cnc12 [ASAP-0000052]
SARS-CoV-2 nsp3-mac1 [1]; concentration 50.0 uM
  perc_inhibition_mean: 6.631%
SARS-CoV-2 nsp3-mac1 [2]; read-out: perc_inhibition_mean, batch_name=ASAP-0000052-001
  inhibition at 50 µM: 6.63%

## O=C(c1ccnc(S)c1)N1CCC(c2ccn3ncc(C(=O)N4CCCCC4)c3c2)CC1 [ASAP-0000402]
SARS-CoV-2 nsp3-mac1 [1]; concentration 49.75 uM
  perc_inhibition_mean: 20.252%
SARS-CoV-2 nsp3-mac1 [1]; concentration 99.5 uM
  perc_inhibition_mean: 35.496%
SARS-CoV-2 nsp3-mac1 [2]; [3]
  inhibition at 49.75 µM: 20.3%
  inhibition at 99.5 µM: 35.5%

## O=C(Nc1ccccc1)Nc1ccc(C(=O)N2CCOCC23CCC3)cc1 [ASAP-0000288]
SARS-CoV-2 nsp3-mac1 [1]; concentration 49.75 uM, n=2
  perc_inhibition_mean: -5.176%
SARS-CoV-2 nsp3-mac1 [1]; concentration 99.5 uM, n=2
  perc_inhibition_mean: -3.184%
SARS-CoV-2 nsp3-mac1 [2]; [4]
  inhibition at 49.75 µM: -5.18%
  inhibition at 99.5 µM: -3.18%

## O=C(Cc1ccon1)Nc1ncnc2[nH]cnc12 [ASAP-0000102]
SARS-CoV-2 nsp3-mac1 [1]; concentration 50.0 uM
  perc_inhibition_mean: -1.615%
SARS-CoV-2 nsp3-mac1 [2]; read-out: perc_inhibition_mean, batch_name=ASAP-0000102-001
  inhibition at 50 µM: -1.61%

## O=C(O)[C@H]1CCCCCN1C(=O)c1ncnc2[nH]ccc12 [ASAP-0000072]
SARS-CoV-2 nsp3-mac1 [1]; concentration 50.0 uM
  perc_inhibition_mean: 11.75%
SARS-CoV-2 nsp3-mac1 [2]; read-out: perc_inhibition_mean, batch_name=ASAP-0000072-001
  inhibition at 50 µM: 11.8%

## Cc1cc(N)ncc1C(=O)N1CCC(c2ccn3ncc(C(=O)N4CCCCC4)c3c2)CC1 [ASAP-0000388]
SARS-CoV-2 nsp3-mac1 [1]; concentration 49.75 uM
  perc_inhibition_mean: 19.535%
SARS-CoV-2 nsp3-mac1 [1]; concentration 99.5 uM
  perc_inhibition_mean: 32.615%
SARS-CoV-2 nsp3-mac1 [2]; [5]
  inhibition at 49.75 µM: 19.5%
  inhibition at 99.5 µM: 32.6%

## NCC(F)(F)CNC(=O)c1ccc(NC(=O)Nc2ccccc2)cc1 [ASAP-0000306]
SARS-CoV-2 nsp3-mac1 [1]; concentration 49.75 uM, n=2
  perc_inhibition_mean: -0.965%
SARS-CoV-2 nsp3-mac1 [1]; concentration 99.5 uM, n=2
  perc_inhibition_mean: -1.174%
SARS-CoV-2 nsp3-mac1 [2]; [6]
  inhibition at 49.75 µM: -0.965%
  inhibition at 99.5 µM: -1.17%

## C[C@@H](Cc1ccc(Cl)s1)Nc1ccc([C@@H](CC(=O)O)NC(=O)c2c[nH]c3ncncc23)cc1 [ASAP-0000464]
SARS-CoV-2 nsp3-mac1 [1]; concentration 49.75 uM
  perc_inhibition_mean: -1.543%
SARS-CoV-2 nsp3-mac1 [1]; concentration 99.5 uM
  perc_inhibition_mean: 1.952%
SARS-CoV-2 nsp3-mac1 [2]; [7]
  inhibition at 49.75 µM: -1.54%
  inhibition at 99.5 µM: 1.95%

## O=C(c1ccnnc1O)N1CCC(c2ccn3ncc(C(=O)N4CCCCC4)c3c2)CC1 [ASAP-0000364]
SARS-CoV-2 nsp3-mac1 [1]; concentration 49.75 uM
  perc_inhibition_mean: -7.591%
SARS-CoV-2 nsp3-mac1 [1]; concentration 99.5 uM
  perc_inhibition_mean: 10.21%
SARS-CoV-2 nsp3-mac1 [2]; [8]
  inhibition at 49.75 µM: -7.59%
  inhibition at 99.5 µM: 10.2%

## O=C(Nc1ccccc1)Nc1ccc(C(=O)Nc2nnc(C(F)(F)F)[nH]2)cc1 [ASAP-0000317]
SARS-CoV-2 nsp3-mac1 [1]; concentration 49.75 uM, n=2
  perc_inhibition_mean: -3.198%
SARS-CoV-2 nsp3-mac1 [1]; concentration 99.5 uM, n=2
  perc_inhibition_mean: -1.459%
SARS-CoV-2 nsp3-mac1 [2]; [9]
  inhibition at 49.75 µM: -3.2%
  inhibition at 99.5 µM: -1.46%

## CC(C)c1nc([C@@H](C)Nc2ncnc3nc[nH]c23)cs1 [ASAP-0000426]
SARS-CoV-2 nsp3-mac1 [1]; concentration 49.75 uM
  perc_inhibition_mean: 2.645%
SARS-CoV-2 nsp3-mac1 [1]; concentration 99.5 uM
  perc_inhibition_mean: 3.067%
SARS-CoV-2 nsp3-mac1 [2]; [10]
  inhibition at 49.75 µM: 2.65%
  inhibition at 99.5 µM: 3.07%

## O=C1C[C@@]2(CCCN(c3ncnc4[nH]ccc34)C2)CN1 [ASAP-0000094]
SARS-CoV-2 nsp3-mac1 [1]; concentration 50.0 uM
  perc_inhibition_mean: -2.451%
SARS-CoV-2 nsp3-mac1 [2]; read-out: perc_inhibition_mean, batch_name=ASAP-0000094-001
  inhibition at 50 µM: -2.45%

## O=C(Nc1ccccc1)Nc1ccc(C(=O)NCCc2cccnc2)cc1 [ASAP-0000308]
SARS-CoV-2 nsp3-mac1 [1]; concentration 49.75 uM, n=2
  perc_inhibition_mean: 1.269%
SARS-CoV-2 nsp3-mac1 [1]; concentration 99.5 uM, n=2
  perc_inhibition_mean: 10.372%
SARS-CoV-2 nsp3-mac1 [2]; [11]
  inhibition at 49.75 µM: 1.27%
  inhibition at 99.5 µM: 10.4%

## CN(Cc1cn(C)nn1)C(=O)c1cnn2ccc(C3CCN(C(=O)c4ccccc4)CC3)cc12 [ASAP-0000277]
SARS-CoV-2 nsp3-mac1 [1]; concentration 49.75 uM, n=2
  perc_inhibition_mean: 2.174%
SARS-CoV-2 nsp3-mac1 [1]; concentration 99.5 uM, n=2
  perc_inhibition_mean: 1.337%
SARS-CoV-2 nsp3-mac1 [2]; [12]
  inhibition at 49.75 µM: 2.17%
  inhibition at 99.5 µM: 1.34%

## O=C(CCN(Cc1cccc(Cl)c1)C(=O)[C@@H]1C[C@@H](O)CN1)N1CCNCC1 [ASAP-0000417]
SARS-CoV-2 nsp3-mac1 [1]; concentration 49.75 uM
  perc_inhibition_mean: -3.538%
SARS-CoV-2 nsp3-mac1 [1]; concentration 99.5 uM
  perc_inhibition_mean: 4.743%
SARS-CoV-2 nsp3-mac1 [2]; [13]
  inhibition at 49.75 µM: -3.54%
  inhibition at 99.5 µM: 4.74%

## O=S1(=O)CCC[C@@H](CNc2ncnc3n[nH]cc23)C1 [ASAP-0000051]
SARS-CoV-2 nsp3-mac1 [1]; concentration 50.0 uM
  perc_inhibition_mean: 4.593%
SARS-CoV-2 nsp3-mac1 [2]; read-out: perc_inhibition_mean, batch_name=ASAP-0000051-001
  inhibition at 50 µM: 4.59%

## O=C(OCc1ncccc1Cl)c1ncnc2[nH]ccc12 [ASAP-0000120]
SARS-CoV-2 nsp3-mac1 [1]; concentration 50.0 uM
  perc_inhibition_mean: 5.063%
SARS-CoV-2 nsp3-mac1 [2]; read-out: perc_inhibition_mean, batch_name=ASAP-0000120-001
  inhibition at 50 µM: 5.06%

## CC(C)[C@@H](CCN(C)C(=O)c1nn2cccnc2c1Cl)Nc1ncnc2[nH]ccc12 [ASAP-0000466]
SARS-CoV-2 nsp3-mac1 [1]; concentration 49.75 uM
  perc_inhibition_mean: 0.844%
SARS-CoV-2 nsp3-mac1 [1]; concentration 99.5 uM
  perc_inhibition_mean: 1.645%
SARS-CoV-2 nsp3-mac1 [2]; [14]
  inhibition at 49.75 µM: 0.844%
  inhibition at 99.5 µM: 1.65%

## Cn1cc(Br)c(CNC(=O)c2ccc(NC(=O)Nc3ccccc3)cc2)n1 [ASAP-0000340]
SARS-CoV-2 nsp3-mac1 [1]; concentration 49.75 uM, n=2
  perc_inhibition_mean: 4.308%
SARS-CoV-2 nsp3-mac1 [1]; concentration 99.5 uM, n=2
  perc_inhibition_mean: 1.196%
SARS-CoV-2 nsp3-mac1 [2]; [15]
  inhibition at 49.75 µM: 4.31%
  inhibition at 99.5 µM: 1.2%
